Source: PMC4569384, “[^11C]MADAM Used as a Model for Understanding the Radiometabolism of Diphenyl Sulfide Radioligands for Positron Emission Tomography (PET)” (PLoS ONE, 2015)
Like-named read-outs stand apart in the source and are kept apart here.

Assays:
[1] = Quantification of MADAM and metabolites in HLM incubations by UHPLC/Q-ToF-MS; type: in vitro ADME, human; conditions: for Concentration in HLM incubation: MADAM 10 μM initial
Procedure: (§1) MADAM and/or [^11C]MADAM (5–15 MBq) were incubated with HLM and RLM (0.5 mg/mL) at 37°C in 1 mL of 0.05 M potassium phosphate buffer (pH 7.4) containing 5 mM NADPH. Experiments were performed with MADAM concentrations of 1 and 10 μM. The incubation times were the following: […] (RLM experiments); 10, 45 and 90 min (HLM experiments). The incubation was stopped by adding an equal volume of ice-cold acetonitrile. The mixture was then vortexed and centrifuged and the supernatant was removed, evaporated. The residue was reconstituted in 150 μL mobile phase before being analyzed by radio-HPLC and UHPLC/Q-ToF-MS as described below. Control incubations in the absence of microsomes, MADAM or NADPH were also performed to assure that the observed peaks corresponded to MADAM metabolites.
(§2) The analyses were performed on a Waters (Milford, MA, USA) Acquity Ultra Performance LC^TM binary solvent manager coupled to a photodiode array detector and Waters (Micromass UK Limited, Manchester, UK) Q-Tof Premier. All the samples (10 μL) were injected onto a Waters Ethylene Bridged Hybrid (BEH) C18 column (2.1 x 50 mm, 1.7 μm) and eluted by a 5 min linear gradient starting from 100% water containing 0.1% formic acid and ending with 30% acetonitrile containing 0.1% formic acid at a flow rate of 0.5 mL/min. Positive electrospray ionization (+ESI) in V-mode with an extended dynamic range was used under the following conditions: capillary 3.5 kV, sampling cone 25 V, extraction cone 4.5 V, source temperature 100°C and desolvation temperature 380°C. Two scan functions, MS and MS^E, in the mass range of 100–1000 Da, were performed simultaneously. The collision energy was set to 5 eV during the MS acquisition and it was ramped from 10 to 35 eV during the MS^E acquisition. MetaboLynx^TM (Waters, Milford, MA, USA) was used to aid metabolite identification.
In the present study, we further aimed to estimate the concentration of the ligand (MADAM) as well as that of the identified metabolites, among them NHMADAM, SOMADAM and NHSOMADAM, for which reference compounds were available. UHPLC/Q-ToF-MS instrumentation was employed to quantify these compounds in RLM and HLM incubations using AFM as the internal standard. In HLM incubations, the concentration of MADAM decreased from 10 μM to 7.76 ± 0.5 μM at 30 min and approximately half of MADAM (5.1 ± 0.5 μM) was still present after an incubation time of 120 min. […] Negligible amounts of the other two metabolites, SOMADAM and NHSOMADAM, were detected at these times. The concentration of SOMADAM ranged from 0.12 ± 0.02 μM to 0.15 ± 0.01 μM over time. A very slight increase in the concentration of NHSOMADAM was observed, from 0.12 ± 0.01 μM to 0.32 ± 0.03 μM at 30 min and 120 min incubation times, respectively.

[2] = Quantification of MADAM and metabolites in RLM incubations by UHPLC/Q-ToF-MS; type: in vitro ADME, rat; conditions: for Concentration in RLM incubation / Concentration in RLM incubation (in words): MADAM 10 μM initial; for Concentration in RLM incubation (in words): various incubation times
Procedure: as §1, §2
The parent compound MADAM was present at a concentration of 1.83 ± 0.20 μM at 10 min and from 30 min the concentration was very low (0.17 to 0.09 μM), indicating a fast metabolism in RLM. […] However, the concentration of the latter declined to 2.08 ± 0.3 μM to at 10 min and to 0.72 ± 0.31 at 60 min. The quantification in HLM experiments was not undertaken after 120 min.

[3] = design: method as in PMID 17096093, PMID 18800204; conditions: cited from earlier work
[4] = Incubation of [^11C]MADAM with rat liver microsomes, radio-HPLC; type: in vitro ADME; conditions: for Percentage of unchanged [^11C]MADAM: RLM 0.5 mg/mL, NADPH, no-carrier-added
Procedure: as §1
(§3) Reversed phase HPLC was used to determine the percentages of radioactivity in microsomal incubation samples that corresponded to unchanged radioligand and its radiometabolites. The HPLC system consists of a Merck Hitachi D-7000 pump, an interface module, a Merck Hitachi L-7400 UV absorbance detector (254 nm) in series with a Packard Radiomatic 150TR radiodetector equipped with a 600 μL flow cell, and a Rheodyne 7125 manual injector. A Waters μ-Bondapak C18 column (7.8 x 300 mm, 10 μm) with acetonitrile (A) and ammonium formate 0.1M (B) as the mobile phase was used with a flow rate of 6.0 mL/min, according to the following gradient: 0–4.5 min, (A/B) 10/90-15/85; 4.5–5.0 min, (A/B) 15/85-20/80; 5.0–5.5 min (A/B) 20/80-45/55; 5.5–9.0 min (A/B) 45/55; 9.0–10 min (A/B) 45/55-70/30; 10.0–20.0 min (A/B) 70/30. The detected peaks were integrated and their areas were expressed as a percentage of the sum of areas of all radioactive compounds present (decay-corrected).

[5] = Incubation of [^11C]MADAM with human liver microsomes, radio-HPLC; type: in vitro ADME; conditions: for Percentage of unchanged [^11C]MADAM: HLM 0.5 mg/mL, NADPH, no-carrier-added; for Intact [^11C]MADAM (%): HLM, t = 45 min
Procedure: as §1, §3

[6] = Radio-HPLC of rat urine after intravenous perfusion of [^11C]MADAM/MADAM; type: in vivo; conditions: for Percentage of intact [^11C]MADAM in urine: no carrier added
Procedure: as §3
All animal handling and experiments were carried out in accordance with the guidelines of Karolinska Institutet and were approved by the local laboratory animal ethics committee (N 363/05 and N 373/07). The rats were housed under standard laboratory conditions with free access to laboratory food and water ad libitum. Male Sprague-Dawley rats were anesthetized with isoflurane, via an E-Z anesthesia vaporizer (5% initially and then 1.5% to maintain anesthesia, blended with 7:3 air: O2 and delivered through a Microflex non-rebreathing mask from Euthanex Corporation, Palmer, PA. The rats were placed on a heating pad (37°C) while [^11C]MADAM (52–76 MBq) and/or MADAM (25 μg to 1 mg) as a perfusion were administered intravenously; the rats were sacrificed at various time points after the administration (15, 30 and 60 min). Urine samples were collected at each time point and acetonitrile (400 μL) was added. After centrifugation at 3000g for 4 min, the supernatant was injected into the radio-HPLC (section 2.3). The radioactivity of the precipitate was measured to quantify the efficiency of the acetonitrile extraction.

[7] = design: method as in PMID 16157534; conditions: 50 min after injection; cited from earlier work
[8] = design: method as in PMID 24857865; conditions: rats euthanized 15 and 30 min post injection; cited from earlier work
[9] = design: method as in PMID 24857865; conditions: cited from earlier work; for Fraction of total radioactivity in plasma: macaque plasma
[10] = design: method as in earlier work; conditions: human, 60 minutes after injection, cited from earlier work

Cc1ccc(S(=O)(=O)c2ccccc2CN(C)C)c(N)c1 [SO2MADAM]
Detection as metabolite of MADAM in microsomal preparations ([1]; HLM, MADAM 10 μM): not detected
Detection as metabolite of MADAM in microsomal preparations ([2]; RLM, MADAM 10 μM): not detected

Cc1ccc(C2CC3CCC(C2C(=O)O[11CH3])N3CC=CI)cc1 (stereo not shown) [[^11C]PE2I]
Effect of addition of carrier on radiometabolic profile [3]: not affect the radiometabolic profile

Cc1ccc(Sc2ccccc2CN(C)C)c(N)c1 [MADAM]
Concentration in HLM incubation ([1]; incubation 30 min): 7760 ± 500 nM
Concentration in HLM incubation ([1]; incubation 120 min): 5100 ± 500 nM
Concentration in RLM incubation ([2]; incubation 10 min): 1830 ± 200 nM

[11CH3]Oc1ccccc1O[C@@H](c1ccccc1)[C@@H]1CNCCO1 [(S,S)-[^11C]MeNER]
Effect of addition of carrier on radiometabolic profile [3]: not affect the radiometabolic profile

Cc1ccc(Sc2ccccc2CN(C)[11CH3])c(N)c1 [[^11C]MADAM]
Percentage of unchanged [^11C]MADAM ([4]; incubation 1 min): 3.3 ± 1%
Percentage of unchanged [^11C]MADAM ([4]; incubation 1 min, listed as [ ^11 C]MADAM): 3.3 ± 1% ^1
Percentage of unchanged [^11C]MADAM ([4]; incubation 4 min): no [^11C]MADAM was detected
Radiometabolites in control incubations ([4]; RLM experiments, control without either NADPH or microsomes): No radiometabolites were detected
Intact [^11C]MADAM (%) ([4]; RLM, t = 1 min, carrier MADAM 10 μM): 78 ± 4%
Percentage of unchanged [^11C]MADAM ([5]; incubation 10 min): 51 ± 4%
Percentage of unchanged [^11C]MADAM ([5]; incubation 10 min, listed as [ ^11 C]MADAM): 51 ± 4%
Percentage of unchanged [^11C]MADAM ([5]; incubation 45 min): 35 ± 1%
Percentage of unchanged [^11C]MADAM ([5]; incubation 45 min, listed as [ ^11 C]MADAM): 35 ± 1%
Percentage of unchanged [^11C]MADAM ([5]; incubation 90 min): 16 ± 1%
Percentage of unchanged [^11C]MADAM ([5]; incubation 90 min, listed as [ ^11 C]MADAM): 16 ± 1%
Radiometabolites in control incubations ([5]; HLM experiments, control without either NADPH or microsomes): No radiometabolites were detected
Intact [^11C]MADAM (%) ([5]; carrier MADAM 1 μM): 58 ± 2%
Intact [^11C]MADAM (%) ([5]; carrier MADAM 10 μM): 80 ± 5%
Radiometabolites by radio-HPLC or UHPLC/Q-ToF-MS ([6]; high dose of MADAM approximately 1 mg perfused): no radiometabolites were detected
Percentage of unchanged [^11C]MADAM in urine ([6]; i.v. perfusion 15 min, carrier MADAM 25 μg): 16%
Radiometabolites in urine ([6]; i.v. perfusion 15 min, carrier MADAM 125 μg): no radiometabolites were observed
Percentage of intact [^11C]MADAM in urine ([6]; i.v. perfusion 15 min): 9%
Percentage of intact [^11C]MADAM in urine ([6]; i.v. perfusion 30 min): undetectable
Percentage of intact [^11C]MADAM in urine ([6]; i.v. perfusion 60 min): undetectable
Radiometabolites in urine ([6]; more than 25 μg carrier, perfusion time 30 and 60 min): no radiometabolites were detected
Percentage of unchanged radioligand in human plasma [7]: approximately 40%
Radioactive species in rat brain by radio-HPLC [8]: only one radioactive peak corresponding to [^11C]MADAM

CNCc1ccccc1Sc1ccc(C)cc1N [NHMADAM]
Concentration in HLM incubation ([1]; incubation 30 min): 2080 ± 400 nM
Concentration in HLM incubation ([1]; incubation 120 min): 2890 ± 400 nM
Concentration in RLM incubation ([2]; incubation 10 min): 2080 ± 300 nM
Concentration in RLM incubation ([2]; incubation 60 min): 720 ± 310 nM

Cc1ccc(S(=O)(=O)c2ccccc2CN(C)[11CH3])c(N)c1 [[^11C]SO2MADAM]
Detection in plasma as further oxidation product ([9]; macaque plasma after injection of [^11C]MADAM): No further oxidation to [^11C]SO2MADAM was detected

CNCc1ccccc1[S+]([O-])c1ccc(C)cc1N (stereo not shown) [NHSOMADAM]
Concentration in HLM incubation ([1]; incubation 30 min): 120 ± 10 nM
Concentration in HLM incubation ([1]; incubation 120 min): 320 ± 30 nM
Concentration in RLM incubation (in words) [2]: very low concentrations

[11CH3]N1CCc2cc(Cl)c(O)cc2C2c3ccccc3CCC21 (stereo not shown) [[^11C]SCH 39166]
Percentage unchanged in plasma ([10]; high specific radioactivity): approximately 30%
Percentage unchanged in plasma ([10]; low specific radioactivity): ~15%

Cc1ccc([S+]([O-])c2ccccc2CN(C)C)c(N)c1 (stereo not shown) [SOMADAM]
Concentration in RLM incubation (in words) [2]: very low concentrations

Cc1ccc([S+]([O-])c2ccccc2CN(C)[11CH3])c(N)c1 (stereo not shown) [[^11C]SOMADAM]
Fraction of total radioactivity in plasma ([9]; 4 min after injection of [^11C]MADAM): 5%
Fraction of total radioactivity in plasma ([9]; 15 min after injection of [^11C]MADAM): 1%
